The text below walks through data of ChEMBL document CHEMBL2218064, “Structure-activity relationship data for chemical series of antagonists of the P2X7 receptor (Supplementary Bioactivity Data for publication CHEMBL1157114)”.

This assay has as its target T1, P2X purinoceptor 7 (Homo sapiens, UniProt Q99572).
T1 sequence (Q99572 whole entry): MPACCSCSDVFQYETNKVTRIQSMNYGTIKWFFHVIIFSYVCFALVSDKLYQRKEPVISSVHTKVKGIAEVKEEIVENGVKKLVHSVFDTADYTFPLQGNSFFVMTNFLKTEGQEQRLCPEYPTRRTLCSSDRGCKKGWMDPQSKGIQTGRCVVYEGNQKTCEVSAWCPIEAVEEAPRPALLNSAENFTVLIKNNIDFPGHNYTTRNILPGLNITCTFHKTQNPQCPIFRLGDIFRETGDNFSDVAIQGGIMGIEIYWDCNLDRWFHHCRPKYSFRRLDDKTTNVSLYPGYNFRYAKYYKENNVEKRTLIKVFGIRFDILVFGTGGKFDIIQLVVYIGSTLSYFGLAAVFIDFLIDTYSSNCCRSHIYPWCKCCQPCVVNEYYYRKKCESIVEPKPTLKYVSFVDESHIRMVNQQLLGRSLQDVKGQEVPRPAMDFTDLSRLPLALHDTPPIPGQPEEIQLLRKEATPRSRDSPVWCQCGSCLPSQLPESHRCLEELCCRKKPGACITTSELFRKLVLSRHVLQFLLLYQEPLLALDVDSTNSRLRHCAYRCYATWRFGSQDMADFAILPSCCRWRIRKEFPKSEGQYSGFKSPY
In words: SUPPLEMENTARY: Inhibition of human P2X7 receptor assessed as inhibition of ethidium bromide accumulation. Same assay as CHEMBL1103860.

With `CC(C)(C)c1nnc2n1CCN(C(=O)c1cccc(C(F)(F)F)c1Cl)C2`, the half-inhibitory concentration (IC50) (commonly the midpoint of a concentration-inhibition curve) is 200 nM.
The figure for `O=C(c1ccc(F)cc1Cl)N1CCn2c(nnc2-c2ccccc2)C1` is 12.6 nM; for `Cn1ccc(-c2nnc3n2CCN(C(=O)c2cccc(C(F)(F)F)c2Cl)C3)n1` it is 5.01 nM.
Consider `Cn1cccc1-c1nnc2n1CCN(C(=O)c1cccc(C(F)(F)F)c1Cl)C2`, for which the IC50 was 6.31 nM.
Take `Cc1cc(-c2nnc3n2CCN(C(=O)c2cccc(C(F)(F)F)c2Cl)C3)no1`: the concentration for half-maximal inhibition (IC50) is 12.6 nM.
In the case of `O=C(c1ccc(F)cc1Cl)N1CCn2c(nnc2-c2cnccn2)C1`, the concentration for half-maximal inhibition (IC50) is 5.01 nM.
The figure for `O=C(c1cccc(C(F)(F)F)c1Cl)N1CCn2c(nnc2-c2ccc[nH]2)C1` is 1.58 nM; for `O=C(c1cccc(C(F)(F)F)c1Cl)N1CCn2c(nnc2-c2cscn2)C1` it is 1.58 nM.
Turning to `O=C(c1cccc(C(F)(F)F)c1Cl)N1CCn2c(nnc2-c2cccnn2)C1`, the IC50 is 12.6 nM.
For `O=C(c1cccc(C(F)(F)F)c1Cl)N1CCn2c(nnc2-c2ccc(F)cn2)C1`, the 50% inhibitory concentration (IC50) was 2.51 nM.
With `Cn1cccc1-c1nnc2n1CCN(C(=O)c1cccc(Cl)c1Cl)C2`, the IC50 was 12.6 nM.
Regarding `Cc1cc(-c2nnc3n2CCN(C(=O)c2cccc(Cl)c2Cl)C3)no1`, the IC50 is 25.1 nM.
For `O=C(c1cccc(Cl)c1Cl)N1CCn2c(nnc2-c2cccnn2)C1`, the half-maximal inhibitory concentration (IC50) is 31.6 nM.
Turning to `O=C(c1ccc(F)cc1Cl)N1CCn2c(nnc2-c2cccnn2)C1`, the IC50 is 501 nM.
In the case of `Cn1ccc(-c2nnc3n2CCN(C(=O)c2cccc(Cl)c2Cl)C3)n1`, the IC50 was 6.31 nM.
Consider `O=C(c1cccc(Cl)c1Cl)N1CCn2c(nnc2-c2ccc[nH]2)C1`, for which the IC50 was 2.51 nM.
For `O=C(c1cccc(Cl)c1Cl)N1CCn2c(nnc2-c2cscn2)C1` the value was 1 nM; for `Cn1nccc1-c1nnc2n1CCN(C(=O)c1cccc(C(F)(F)F)c1Cl)C2`, 15.8 nM; for `O=C(c1ccc(F)cc1Cl)N1CCn2c(Br)nnc2C1`, 316 nM.
Regarding `O=C(c1cccc(C(F)(F)F)c1Cl)N1CCn2c(nnc2-c2ccco2)C1`, the concentration for half-maximal inhibition (IC50) is 1.58 nM.
Take `Cn1nccc1-c1nnc2n1CCN(C(=O)c1cccc(Cl)c1Cl)C2`: the half-maximal inhibitory concentration (IC50) is 25.1 nM.
Consider `O=C(c1ccc(F)cc1Cl)N1CCn2c(Br)cnc2C1`, for which the IC50 was 501 nM.
On to `O=C(c1cccc(C(F)(F)F)c1F)N1CCn2c(nnc2-c2ccccn2)C1`, for which the IC50 was 5.01 nM.
Regarding `O=C(c1ccc(Cl)cc1Cl)N1CCn2c(nnc2-c2cnccn2)C1`, the half-inhibitory concentration (IC50) is 3.16 nM.
Consider `O=C(c1ccc(F)cc1C(F)(F)F)N1CCn2c(nnc2-c2ccccn2)C1`, for which the IC50 is 31.6 nM.
In the case of `O=C(c1ccc(Cl)cc1Cl)N1CCn2c(nnc2-c2ccc(F)cn2)C1`, the IC50 was 12.6 nM.
Take `O=C(c1cccc(C(F)(F)F)c1Cl)N1CCn2c(-c3ccc(F)cn3)cnc2C1`: the IC50 is 3.98 nM.
Take `O=C(c1ccc(Cl)cc1Cl)N1CCn2c(nnc2-c2cscn2)C1`: the 50% inhibitory concentration (IC50) was 2 nM.
As for `O=C(c1cccc(Cl)c1Cl)N1CCn2c(nnc2-c2ccc(F)cc2)C1`, the IC50 was 3.16 nM.
`O=C(c1cccc(Cl)c1Cl)N1CCn2c(nnc2-c2ccc(F)cc2F)C1`: the half-inhibitory concentration (IC50) is 12.6 nM.
With `O=C(c1ccc(F)cc1Cl)N1CCn2c(nc(C(F)(F)F)c2Br)C1`, the IC50 was 31.6 nM.
The figure for `O=C(c1ccc(Cl)cc1Cl)N1CCn2c(nnc2-c2ccc(F)cc2)C1` is 15.8 nM; for `O=C(c1ccc(Cl)cc1Cl)N1CCn2c(nnc2-c2ccc(F)cc2F)C1` it is 100 nM.
For the molecule `O=C(c1ccc(Cl)cc1Cl)N1CCn2c(nnc2-c2ccncn2)C1`, the IC50 was 31.6 nM.
In the case of `O=C(c1ccccc1Cl)N1CCn2c(nnc2-c2cscn2)C1`, the IC50 is 10 nM.
Regarding `O=C(c1ccc(Cl)c(Cl)c1)N1CCn2c(nnc2-c2cnccn2)C1`, the IC50 was 31.6 nM.
The figure for `O=C(c1ccc(Cl)c(C(F)(F)F)c1)N1CCn2c(nnc2-c2cnccn2)C1` is 31.6 nM; for `O=C(c1ccc(F)c(C(F)(F)F)c1)N1CCn2c(nnc2-c2cnccn2)C1` it is 12.6 nM; for `O=C(c1ccc(F)c(Cl)c1)N1CCn2c(nnc2-c2cnccn2)C1` it is 20 nM.
Turning to `Cc1cc(F)ccc1C(=O)N1CCn2c(nnc2-c2cnccn2)C1`, the IC50 is 15.8 nM.
Take `O=C(c1ccccc1Cl)N1CCn2c(nnc2-c2ccncn2)C1`: the IC50 is 158 nM.
Take `O=C(c1ccccc1Cl)N1CCn2c(nnc2-c2ccc(F)cn2)C1`: the IC50 was 39.8 nM.
For `O=C(c1ccccc1Cl)N1CCn2c(nnc2-c2ccc(F)cc2)C1` the value was 79.4 nM.
Consider `O=C(c1ccccc1Cl)N1CCn2c(nnc2-c2cnccn2)C1`, for which the IC50 is 20 nM.
`O=C(c1ccccc1Cl)N1CCn2c(nnc2-c2ncccc2F)C1`: the IC50 is 31.6 nM.
In the case of `O=C(c1ccccc1C(F)(F)F)N1CCn2c(nnc2-c2ccccn2)C1`, the IC50 was 63.1 nM.
The figure for `O=C(c1ccc(F)c(Cl)c1Cl)N1CCn2c(nnc2-c2cnccn2)C1` is 2 nM; for `O=C(c1ccc(Cl)c(F)c1Cl)N1CCn2c(nnc2-c2cnccn2)C1` it is 2 nM; for `O=C(c1ccc(Cl)c(F)c1Cl)N1CCn2c(nnc2-c2ccncn2)C1` it is 20 nM.
`O=C(c1ccc(F)cc1Cl)N1CCn2c(nnc2-c2cccc(F)c2)C1`: the IC50 was 15.8 nM.
In the case of `O=C(c1ccc(F)cc1Cl)N1CCn2c(nnc2-c2ccc(F)c(F)c2)C1`, the IC50 is 50.1 nM.
Take `O=C(c1cccc(C(F)(F)F)c1Cl)N1CCn2c(nc(Cl)c2Br)C1`: the IC50 is 2.51 nM.
As to `O=C(c1cccc(C(F)(F)F)c1Cl)N1CCn2c(nc(Br)c2-c2ccc(F)cc2)C1`, the concentration for half-maximal inhibition (IC50) was 31.6 nM.
The figure for `COc1cccc(-c2nnc3n2CCN(C(=O)c2ccc(F)cc2Cl)C3)c1` is 25.1 nM.
Consider `O=C(c1ccc(F)cc1Cl)N1CCn2c(nnc2-c2cccc(Cl)c2)C1`, for which the half-inhibitory concentration (IC50) was 12.6 nM.
Consider `COc1ccccc1-c1nnc2n1CCN(C(=O)c1ccc(F)cc1Cl)C2`, for which the concentration for half-maximal inhibition (IC50) is 158 nM.
Regarding `O=C(c1ccc(F)c(Cl)c1Cl)N1CCn2c(nnc2-c2ccc(F)cn2)C1`, the half-inhibitory concentration (IC50) was 1.58 nM.
`O=C(c1cccc(C(F)(F)F)c1Cl)N1CCn2c(nc(C(F)(F)F)c2-c2ccc(F)cc2)C1`: the IC50 was 79.4 nM.
As for `O=C(c1ccc(Cl)cc1Cl)N1CCn2c(nc(C(F)(F)F)c2-c2ccc(F)cc2)C1`, the IC50 is 158 nM.
Consider `O=C(c1ccc(F)cc1Cl)N1CCn2c(nnc2-c2cccc3cccnc23)C1`, for which the 50% inhibitory concentration (IC50) was 251 nM.
As to `O=C(c1ccc(F)cc1Cl)N1CCn2c(nnc2-c2cccc(Cl)c2Cl)C1`, the 50% inhibitory concentration (IC50) was 100 nM.
Regarding `O=C(c1ccc(F)cc1Cl)N1CCn2c(nnc2-c2cccc(F)c2F)C1`, the concentration for half-maximal inhibition (IC50) is 39.8 nM.
Turning to `O=C(c1cccc(C(F)(F)F)c1Cl)N1CCn2c(Cl)cnc2C1`, the IC50 was 12.6 nM.
On to `O=C(c1ccc(F)cc1Cl)N1CCn2c(-c3cnccn3)cnc2C1`, for which the IC50 is 3.98 nM.
On to `O=C(c1ccc(Cl)cc1Cl)N1CCn2c(Cl)cnc2C1`, for which the IC50 was 200 nM.
Take `O=C(c1cccc(C(F)(F)F)c1Cl)N1CCn2c(-c3cnccn3)cnc2C1`: the concentration for half-maximal inhibition (IC50) is 2 nM.
For `O=C(c1ccc(F)cc1Cl)N1CCn2c(nnc2-c2cccc3cc[nH]c23)C1` the value was 31.6 nM.
On to `O=C(c1cccc(C(F)(F)F)c1Cl)N1CCn2c(nc(Cl)c2Cl)C1`, for which the concentration for half-maximal inhibition (IC50) is 3.16 nM.
As for `O=C(c1ccc(Cl)cc1Cl)N1CCn2c(nc(Cl)c2Cl)C1`, the IC50 is 39.8 nM.
As to `O=C(c1cccc(C(F)(F)F)c1Cl)N1CCn2c(-c3nccs3)cnc2C1`, the IC50 was 1.58 nM.
With `O=C(c1ccc(F)cc1Cl)N1CCn2c(-c3ccc(F)cn3)cnc2C1`, the IC50 is 25.1 nM.
Take `O=C(c1cccc(C(F)(F)F)c1Cl)N1CCn2c(nnc2C2CC2)C1`: the IC50 is 31.6 nM.
On to `CCCc1nnc2n1CCN(C(=O)c1cccc(C(F)(F)F)c1Cl)C2`, for which the IC50 is 25.1 nM.
On to `O=C(c1cccc(C(F)(F)F)c1Cl)N1CCn2c(nnc2C2CCCCC2)C1`, for which the IC50 is 50.1 nM.
Regarding `Cc1nc(-c2nnc3n2CCN(C(=O)c2ccc(F)cc2Cl)C3)cs1`, the IC50 was 158 nM.
For `COCCc1nnc2n1CCN(C(=O)c1cccc(C(F)(F)F)c1Cl)C2`, the IC50 was 100 nM.
Consider `O=C(c1cccc(C(F)(F)F)c1Cl)N1CCn2c(nnc2-c2ccccc2O)C1`, for which the IC50 was 2.51 nM.
Consider `O=C(c1cccc(C(F)(F)F)c1Cl)N1CCn2c(-c3ncccn3)cnc2C1`, for which the 50% inhibitory concentration (IC50) was 1.58 nM.
With `O=C(c1cccc(C(F)(F)F)c1Cl)N1CCn2c(-c3cscn3)cnc2C1`, the half-maximal inhibitory concentration (IC50) was 1.26 nM.
For `O=C(c1cccc(C(F)(F)F)c1Cl)N1CCn2c(nnc2C2CCCC2)C1` the value was 25.1 nM; for `Cn1ccnc1-c1nnc2n1CCN(C(=O)c1ccc(F)cc1Cl)C2`, 316 nM; for `O=C(c1ccc(F)cc1Cl)N1CCn2c(nnc2-c2cnc(Cl)cn2)C1`, 200 nM.
Consider `CC(C)(C)c1cn2c(n1)CN(C(=O)c1cccc(C(F)(F)F)c1Cl)CC2`, for which the IC50 is 631 nM.
For `O=C(c1cccc(C(F)(F)F)c1Cl)N1CCn2cc(-c3ccccc3)nc2C1`, the IC50 was 316 nM.
As for `O=C(c1cccc(Cl)c1Cl)N1CCn2cc(-c3ccccc3)nc2C1`, the IC50 is 631 nM.
As to `O=C(c1cccc(C(F)(F)F)c1Cl)N1CCn2c(nnc2-c2ccncn2)C1`, the IC50 is 12.6 nM.
As for `O=C(c1cccc(C(F)(F)F)c1Cl)N1CCn2c(nnc2-c2ccc(F)cc2F)C1`, the IC50 is 15.8 nM.
